In US10238648B2 (priority 2014, dated 2019):
Counter-ions that a name gives are not always drawn. Like-named read-outs stand apart in the source and are kept apart here.

Columns and labels:
[1] = Permeation of abuse-deterrent (naloxone) formulations through separating membrane and placebo opioid layer, 72 h diffusion study; format: in vitro ADME; conditions: from abuse deterrent layer NLX-2014-01-011
Description: The ability of abuse-deterrent layer formulations to migrate into the oxymorphone layer was investigated. A placebo oxymorphone layer was prepared and two abuse-deterrent formulations (NLX-2014-01-011 and NLX-2014-01-012) were tested with different separating layers. The appearance of both formulations was uniform and aesthetically pleasing. When assembled, no distinguishable layers could be observed and the layers themselves were inseparable. Patches of size 0.95 cm^2 patches were punched out from the release liner side of the assembled roll.
Insofar as NLX-2014-01-011 is concerned, while two cells did show permeation from the abuse deterrent layer, this was probably due to the abuse deterrent layer contacting the skin, as by the end of the experiment almost no permeation was observed.

[2] = tested on: sedation in dogs; conditions: 4.5 mg intravenous dose reversed by 1.2 mg intravenous naloxone; cited from earlier work
[3] = cited from earlier work
[4] = oral dose x bioavailability
Excerpt: [formula] [formula] [formula] Dual Penetration Enhancer Formulations

## C=CCN1CC[C@]23c4c5ccc(O)c4O[C@H]2C(=O)CC[C@@]3(O)[C@H]1C5 [naloxone hydrochloride]
[1]
  permeability of the antagonist in the system: largely impermeable

## C=CCN1CC[C@]23c4c5ccc(O)c4O[C@H]2C(=O)CC[C@@]3(O)[C@H]1C5 [naloxone]
[2]
  reversal of oxymorphone sedation: reversed

## COc1ccc2c3c1O[C@H]1C(=O)CC[C@H]4[C@@H](C2)N(C)CC[C@]314 [Hydrocodone]
[3]; po
  Bioavailability: 80%

## CN1CC[C@]23c4c5ccc(O)c4O[C@H]2C(=O)CC[C@@]3(O)[C@H]1C5 [Oxymorphone]
[4]
  Dose after first pass effect: 4.0 mg/day

## COc1ccc2c3c1O[C@H]1C(=O)CC[C@@]4(O)[C@@H](C2)N(C)CC[C@]314 [Oxycodone]
[3]; oral
  Bioavailability: 87%
